Measured values from the OligoGym collection.
Oligonucleotides are given in HELM: sugar(base)linkage, 5' to 3'; d 2'-deoxyribose, r ribose, m 2'-O-methylribose, p phosphate. ss, as = sense and antisense strand
Note: test concentration or dose not given here.

The substances below were run against TMEM63B (assay: reporter assay of Huesken 2005). Settings: siRNA.
“RNA1{r(A)p.r(U)p.r(G)p.r(G)p.r(A)p.r(A)p.r(U)p.r(C)p.r(U)p.r(C)p.r(C)p.r(A)p.r(A)p.r(A)p.r(U)p.r(A)p.r(U)p.r(G)p.r(C)p.d(T)p.d(T)}|RNA2{r(G)p.r(C)p.r(A)p.r(U)p.r(A)p.r(U)p.r(U)p.r(U)p.r(G)p.r(G)p.r(A)p.r(G)p.r(A)p.r(U)p.r(U)p.r(C)p.r(C)p.r(A)p.r(U)p.d(T)p.d(G)}$$$RNA1{StrandType:ss}|RNA2{StrandType:as}$” showed a normalised inhibition (eCFP-eYFP dual reporter) of 78.7%. For “RNA1{r(A)p.r(U)p.r(U)p.r(U)p.r(U)p.r(G)p.r(A)p.r(G)p.r(G)p.r(A)p.r(A)p.r(G)p.r(C)p.r(C)p.r(U)p.r(A)p.r(C)p.r(C)p.r(C)p.d(T)p.d(T)}|RNA2{r(G)p.r(G)p.r(G)p.r(U)p.r(A)p.r(G)p.r(G)p.r(C)p.r(U)p.r(U)p.r(C)p.r(C)p.r(U)p.r(C)p.r(A)p.r(A)p.r(A)p.r(A)p.r(U)p.d(G)p.d(C)}$$$RNA1{StrandType:ss}|RNA2{StrandType:as}$”, the normalised inhibition (eCFP-eYFP dual reporter) was 27.8%. Substance “RNA1{r(C)p.r(A)p.r(C)p.r(C)p.r(A)p.r(C)p.r(U)p.r(C)p.r(C)p.r(A)p.r(G)p.r(C)p.r(C)p.r(A)p.r(U)p.r(C)p.r(A)p.r(U)p.r(C)p.d(T)p.d(T)}|RNA2{r(G)p.r(A)p.r(U)p.r(G)p.r(A)p.r(U)p.r(G)p.r(G)p.r(C)p.r(U)p.r(G)p.r(G)p.r(A)p.r(G)p.r(U)p.r(G)p.r(G)p.r(U)p.r(G)p.d(A)p.d(G)}$$$RNA1{StrandType:ss}|RNA2{StrandType:as}$” has a normalised inhibition (eCFP-eYFP dual reporter) of 70.2%. In the case of “RNA1{r(C)p.r(A)p.r(C)p.r(C)p.r(C)p.r(A)p.r(G)p.r(U)p.r(U)p.r(C)p.r(U)p.r(U)p.r(C)p.r(C)p.r(C)p.r(C)p.r(A)p.r(C)p.r(C)p.d(T)p.d(T)}|RNA2{r(G)p.r(G)p.r(U)p.r(G)p.r(G)p.r(G)p.r(G)p.r(A)p.r(A)p.r(G)p.r(A)p.r(A)p.r(C)p.r(U)p.r(G)p.r(G)p.r(G)p.r(U)p.r(G)p.d(A)p.d(T)}$$$RNA1{StrandType:ss}|RNA2{StrandType:as}$”, the normalised inhibition (eCFP-eYFP dual reporter) is reported as 56.1%. For “RNA1{r(C)p.r(A)p.r(C)p.r(U)p.r(U)p.r(C)p.r(A)p.r(A)p.r(A)p.r(U)p.r(A)p.r(C)p.r(C)p.r(U)p.r(C)p.r(A)p.r(G)p.r(U)p.r(G)p.d(T)p.d(T)}|RNA2{r(C)p.r(A)p.r(C)p.r(U)p.r(G)p.r(A)p.r(G)p.r(G)p.r(U)p.r(A)p.r(U)p.r(U)p.r(U)p.r(G)p.r(A)p.r(A)p.r(G)p.r(U)p.r(G)p.d(T)p.d(C)}$$$RNA1{StrandType:ss}|RNA2{StrandType:as}$”, the normalised inhibition (eCFP-eYFP dual reporter) was 55%. “RNA1{r(C)p.r(A)p.r(G)p.r(C)p.r(C)p.r(A)p.r(U)p.r(C)p.r(A)p.r(U)p.r(C)p.r(A)p.r(U)p.r(C)p.r(A)p.r(C)p.r(C)p.r(A)p.r(C)p.d(T)p.d(T)}|RNA2{r(G)p.r(U)p.r(G)p.r(G)p.r(U)p.r(G)p.r(A)p.r(U)p.r(G)p.r(A)p.r(U)p.r(G)p.r(A)p.r(U)p.r(G)p.r(G)p.r(C)p.r(U)p.r(G)p.d(G)p.d(A)}$$$RNA1{StrandType:ss}|RNA2{StrandType:as}$” was tested, and the normalised inhibition (eCFP-eYFP dual reporter) was 74.3%. Substance “RNA1{r(C)p.r(A)p.r(G)p.r(C)p.r(U)p.r(C)p.r(C)p.r(G)p.r(U)p.r(U)p.r(G)p.r(A)p.r(C)p.r(U)p.r(U)p.r(U)p.r(G)p.r(A)p.r(C)p.d(T)p.d(T)}|RNA2{r(G)p.r(U)p.r(C)p.r(A)p.r(A)p.r(A)p.r(G)p.r(U)p.r(C)p.r(A)p.r(A)p.r(C)p.r(G)p.r(G)p.r(A)p.r(G)p.r(C)p.r(U)p.r(G)p.d(G)p.d(A)}$$$RNA1{StrandType:ss}|RNA2{StrandType:as}$” has a normalised inhibition (eCFP-eYFP dual reporter) of 84.4%. With “RNA1{r(C)p.r(A)p.r(G)p.r(G)p.r(A)p.r(C)p.r(A)p.r(A)p.r(C)p.r(C)p.r(A)p.r(U)p.r(G)p.r(C)p.r(A)p.r(C)p.r(A)p.r(A)p.r(G)p.d(T)p.d(T)}|RNA2{r(C)p.r(U)p.r(U)p.r(G)p.r(U)p.r(G)p.r(C)p.r(A)p.r(U)p.r(G)p.r(G)p.r(U)p.r(U)p.r(G)p.r(U)p.r(C)p.r(C)p.r(U)p.r(G)p.d(T)p.d(T)}$$$RNA1{StrandType:ss}|RNA2{StrandType:as}$” the normalised inhibition (eCFP-eYFP dual reporter) was 61.5%. For “RNA1{r(C)p.r(A)p.r(G)p.r(G)p.r(C)p.r(C)p.r(U)p.r(G)p.r(C)p.r(U)p.r(C)p.r(A)p.r(U)p.r(G)p.r(U)p.r(A)p.r(C)p.r(A)p.r(U)p.d(T)p.d(T)}|RNA2{r(A)p.r(U)p.r(G)p.r(U)p.r(A)p.r(C)p.r(A)p.r(U)p.r(G)p.r(A)p.r(G)p.r(C)p.r(A)p.r(G)p.r(G)p.r(C)p.r(C)p.r(U)p.r(G)p.d(G)p.d(G)}$$$RNA1{StrandType:ss}|RNA2{StrandType:as}$”, the normalised inhibition (eCFP-eYFP dual reporter) was 72.1%. Work on “RNA1{r(C)p.r(A)p.r(U)p.r(C)p.r(C)p.r(C)p.r(A)p.r(A)p.r(G)p.r(A)p.r(U)p.r(G)p.r(A)p.r(G)p.r(G)p.r(A)p.r(G)p.r(U)p.r(U)p.d(T)p.d(T)}|RNA2{r(A)p.r(A)p.r(C)p.r(U)p.r(C)p.r(C)p.r(U)p.r(C)p.r(A)p.r(U)p.r(C)p.r(U)p.r(U)p.r(G)p.r(G)p.r(G)p.r(A)p.r(U)p.r(G)p.d(A)p.d(G)}$$$RNA1{StrandType:ss}|RNA2{StrandType:as}$” yielded a normalised inhibition (eCFP-eYFP dual reporter) of 53%. “RNA1{r(C)p.r(A)p.r(U)p.r(C)p.r(U)p.r(G)p.r(G)p.r(U)p.r(G)p.r(G)p.r(C)p.r(U)p.r(G)p.r(C)p.r(G)p.r(C)p.r(U)p.r(G)p.r(C)p.d(T)p.d(T)}|RNA2{r(G)p.r(C)p.r(A)p.r(G)p.r(C)p.r(G)p.r(C)p.r(A)p.r(G)p.r(C)p.r(C)p.r(A)p.r(C)p.r(C)p.r(A)p.r(G)p.r(A)p.r(U)p.r(G)p.d(A)p.d(A)}$$$RNA1{StrandType:ss}|RNA2{StrandType:as}$” was tested, and the normalised inhibition (eCFP-eYFP dual reporter) was 29.3%. Substance “RNA1{r(C)p.r(A)p.r(U)p.r(G)p.r(A)p.r(C)p.r(C)p.r(U)p.r(A)p.r(C)p.r(A)p.r(G)p.r(U)p.r(A)p.r(U)p.r(C)p.r(A)p.r(C)p.r(C)p.d(T)p.d(T)}|RNA2{r(G)p.r(G)p.r(U)p.r(G)p.r(A)p.r(U)p.r(A)p.r(C)p.r(U)p.r(G)p.r(U)p.r(A)p.r(G)p.r(G)p.r(U)p.r(C)p.r(A)p.r(U)p.r(G)p.d(A)p.d(C)}$$$RNA1{StrandType:ss}|RNA2{StrandType:as}$” has a normalised inhibition (eCFP-eYFP dual reporter) of 58.9%. “RNA1{r(C)p.r(C)p.r(A)p.r(C)p.r(U)p.r(C)p.r(C)p.r(A)p.r(G)p.r(C)p.r(C)p.r(A)p.r(U)p.r(C)p.r(A)p.r(U)p.r(C)p.r(A)p.r(U)p.d(T)p.d(T)}|RNA2{r(A)p.r(U)p.r(G)p.r(A)p.r(U)p.r(G)p.r(A)p.r(U)p.r(G)p.r(G)p.r(C)p.r(U)p.r(G)p.r(G)p.r(A)p.r(G)p.r(U)p.r(G)p.r(G)p.d(T)p.d(G)}$$$RNA1{StrandType:ss}|RNA2{StrandType:as}$” showed a normalised inhibition (eCFP-eYFP dual reporter) of 77.4%. “RNA1{r(C)p.r(C)p.r(A)p.r(U)p.r(C)p.r(C)p.r(U)p.r(C)p.r(U)p.r(G)p.r(C)p.r(C)p.r(U)p.r(C)p.r(U)p.r(U)p.r(C)p.r(U)p.r(G)p.d(T)p.d(T)}|RNA2{r(C)p.r(A)p.r(G)p.r(A)p.r(A)p.r(G)p.r(A)p.r(G)p.r(G)p.r(C)p.r(A)p.r(G)p.r(A)p.r(G)p.r(G)p.r(A)p.r(U)p.r(G)p.r(G)p.d(G)p.d(C)}$$$RNA1{StrandType:ss}|RNA2{StrandType:as}$” was tested, and the normalised inhibition (eCFP-eYFP dual reporter) was 53.2%. In the case of “RNA1{r(C)p.r(C)p.r(C)p.r(A)p.r(U)p.r(C)p.r(A)p.r(U)p.r(C)p.r(A)p.r(C)p.r(C)p.r(C)p.r(A)p.r(G)p.r(U)p.r(U)p.r(C)p.r(U)p.d(T)p.d(T)}|RNA2{r(A)p.r(G)p.r(A)p.r(A)p.r(C)p.r(U)p.r(G)p.r(G)p.r(G)p.r(U)p.r(G)p.r(A)p.r(U)p.r(G)p.r(A)p.r(U)p.r(G)p.r(G)p.r(G)p.d(G)p.d(T)}$$$RNA1{StrandType:ss}|RNA2{StrandType:as}$”, the normalised inhibition (eCFP-eYFP dual reporter) is reported as 68.7%. For “RNA1{r(C)p.r(C)p.r(C)p.r(G)p.r(U)p.r(G)p.r(U)p.r(U)p.r(A)p.r(C)p.r(A)p.r(A)p.r(C)p.r(G)p.r(U)p.r(G)p.r(G)p.r(C)p.r(U)p.d(T)p.d(T)}|RNA2{r(A)p.r(G)p.r(C)p.r(C)p.r(A)p.r(C)p.r(G)p.r(U)p.r(U)p.r(G)p.r(U)p.r(A)p.r(A)p.r(C)p.r(A)p.r(C)p.r(G)p.r(G)p.r(G)p.d(C)p.d(G)}$$$RNA1{StrandType:ss}|RNA2{StrandType:as}$”, the normalised inhibition (eCFP-eYFP dual reporter) was 75.8%. Work on “RNA1{r(C)p.r(C)p.r(G)p.r(C)p.r(C)p.r(G)p.r(A)p.r(G)p.r(A)p.r(G)p.r(G)p.r(C)p.r(G)p.r(C)p.r(A)p.r(A)p.r(C)p.r(G)p.r(U)p.d(T)p.d(T)}|RNA2{r(A)p.r(C)p.r(G)p.r(U)p.r(U)p.r(G)p.r(C)p.r(G)p.r(C)p.r(C)p.r(U)p.r(C)p.r(U)p.r(C)p.r(G)p.r(G)p.r(C)p.r(G)p.r(G)p.d(C)p.d(C)}$$$RNA1{StrandType:ss}|RNA2{StrandType:as}$” yielded a normalised inhibition (eCFP-eYFP dual reporter) of 21.8%. “RNA1{r(C)p.r(C)p.r(G)p.r(U)p.r(G)p.r(C)p.r(A)p.r(C)p.r(U)p.r(A)p.r(C)p.r(C)p.r(U)p.r(G)p.r(U)p.r(C)p.r(C)p.r(U)p.r(U)p.d(T)p.d(T)}|RNA2{r(A)p.r(A)p.r(G)p.r(G)p.r(A)p.r(C)p.r(A)p.r(G)p.r(G)p.r(U)p.r(A)p.r(G)p.r(U)p.r(G)p.r(C)p.r(A)p.r(C)p.r(G)p.r(G)p.d(C)p.d(A)}$$$RNA1{StrandType:ss}|RNA2{StrandType:as}$” was tested, and the normalised inhibition (eCFP-eYFP dual reporter) was 86.8%. Work on “RNA1{r(C)p.r(C)p.r(U)p.r(A)p.r(C)p.r(A)p.r(G)p.r(C)p.r(U)p.r(U)p.r(U)p.r(G)p.r(G)p.r(G)p.r(A)p.r(G)p.r(A)p.r(A)p.r(C)p.d(T)p.d(T)}|RNA2{r(G)p.r(U)p.r(U)p.r(C)p.r(U)p.r(C)p.r(C)p.r(C)p.r(A)p.r(A)p.r(A)p.r(G)p.r(C)p.r(U)p.r(G)p.r(U)p.r(A)p.r(G)p.r(G)p.d(C)p.d(A)}$$$RNA1{StrandType:ss}|RNA2{StrandType:as}$” yielded a normalised inhibition (eCFP-eYFP dual reporter) of 81.9%. “RNA1{r(C)p.r(C)p.r(U)p.r(C)p.r(U)p.r(U)p.r(C)p.r(A)p.r(U)p.r(C)p.r(A)p.r(A)p.r(U)p.r(G)p.r(G)p.r(A)p.r(A)p.r(U)p.r(C)p.d(T)p.d(T)}|RNA2{r(G)p.r(A)p.r(U)p.r(U)p.r(C)p.r(C)p.r(A)p.r(U)p.r(U)p.r(G)p.r(A)p.r(U)p.r(G)p.r(A)p.r(A)p.r(G)p.r(A)p.r(G)p.r(G)p.d(G)p.d(T)}$$$RNA1{StrandType:ss}|RNA2{StrandType:as}$” showed a normalised inhibition (eCFP-eYFP dual reporter) of 73.9%.
